According to patent publication US20250236617A1, “BICYCLIC TETRAHYDROTHIAZEPINE DERIVATIVES” (Hoffmann-La Roche Inc., priority 2022, published 2025):

Tests used:
[1] = system: MV-3 RFP cells; assay: T-cell-TCB-MV3 killing assay; type: cell-based; conditions: MV-3, 120 h, primary human T-cells + MCSP-TCB, 5 d; for Emax: 20 μM reference compound A1 = 100%, read-out: MSCP TCB killing MV-3 cells 5 d Emax; for EC50: read-out: MSCP TCB killing MV-3 cells 5 d EC50
Protocol: All culturing steps are executed at 5% CO2, 37° C. and 95% humidity.
MV-3 RFP cells are cultured in MV-3 medium (DMEM+10% FBS, 1× PenStrep and 0.5 μg/mL Puromycin) for at least 3 weeks. Cultured MV-3 cells at 80% confluency are washed once with PBS−− and trypsinized until detached. […] Cells are seeded with 100 μL/well into a 96-well plate (TTP, #92696), and placed for 40 minutes without moving at room temperature in order to achieve evenly distributed attachment of cells. Plates are then incubated until further use.
On the next day, expanded primary human T-cells are thawed and resuspended in T-cell medium to 4*10^6 cells/mL. For 3 hours, they are cultured in a 6-well plate with 6 mL per well at maximum. After culturing the T-cells, they are filtered through a cell strainer (Miltenyi Biotech, #130-041-407), counted again, and cell concentration is adjusted to 2*10^6 cells/mL.
MCSP-TCB or PBS are pre-diluted in T-cell medium (concentration depending on T-cell donor), 4 times more concentrated than the end-concentration. 60 μL/well of pre-dilutions are then distributed into a round bottom plate (Costar, #3799) according to plate layout. Compounds are added in a 9 pt dose response with the Tecan D300e Digital Dispenser, as well 4 times more concentrated than the end-concentration. DMSO concentration of all wells is adjusted to 0.8%, resulting in 0.2% as final concentration.
60 μL per well of T-cell suspension are added to the prepared round bottom plate and resuspended with a manual multichannel. 100 μL/well of the resuspended T-cell suspension including treatments are then transferred cautiously to the over-night cultured MV-3 cells according to plate layout. 100 μL T-cell medium only is added to the outer MV-3 wells only. Final compound DR is starting at 20 μM with a dilution factor of 3.333. Final TCB concentration is between […] and was determined for each T-cell donor individually by running TCB titrations. For each donor, a TCB concentration was chosen which corresponds to 10-20% of MV3 baseline cell killing in the absence of compound treatment. Positive control is the reference compound A1 which is added in a DR, as well as additional wells with only 20 μM. 20 μM of reference compound A1 represent the positive stimulator control, TCB only (DMSO wells) the neutral control.
After transfer of T-cells with treatment pre-dilutions, MV-3 cells are imaged by time-lapse microscopy using IncucyteZOOM™ (Essen BioScience, MI, USA). Imaging is performed every 3 hours for a total of 120 hours (10× objective, phase and red image channels, acquisition time 400 ms, Green/Red 4614 optical module). RFP object count per well is analysed in the IncucyteZOOM™ Software (Version 2019B Rev2) with a mask that was previously created and optimized for MV-3 cells. Raw data is exported as object count/well and values are normalized as % TCL compared to wells with MV-3 only, representing 100% growth and therefore 0% TCL.
Calculated % TCL values are analysed in Genedata Screener using Roche Normalization PCT_POS_CTRL with MCSP-TCB only set as Neutral Control and 20 μM of the reference compound A1 set as Stimulator Control/100%.

[2] = system: primary human T-cells; assay: IL2 secretion measurements in CD3-stimulated T-cells; type: cell-based; conditions: CD3 condition; for Emax IL2 (% activation): 24 hours, 20 μM reference compound A1 = 100%; for EC50: Homo sapiens, T-cell, IL2 secretion after 24 hours, read-out: Tcell IL2 CD3 EC50
Method in brief: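 Expanded primary human T-cells (100 k/well, RPMI + 5% human serum) on plate-bound anti-CD3 (donor-titrated) or PBS counter-screen wells, 5–6 pt dose response from 20 or 10 μM top (dilution factor 3.333), 0.2% DMSO final. IL-2 in 24 h supernatant by ProQuantum immunoassay or ELISA. Normalised to DMSO (0%) and 20 μM reference A1 (100%); EC50 and Emax from sigmoidal fit.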

Row | Compound | Emax [1] [%] | EC50 [1] [nM] | Emax IL2 (% activation) [2] [% activation] | EC50 [2] [nM]
1 | COc1ccc(-c2ccc(CN3C(=O)[C@@H](N)CS(=O)(=O)c4cc(F)c(-c5cnc(C)c(C)c5)cc43)cc2)cc1 [Example 28, (3R)-3-amino-7-(5,6-dimethyl-3-pyridyl)-8-fluoro-5-[[4-(4-methoxyphenyl)phenyl]methyl]-1,1-dioxo-2,3-dihydro-1λ6,5-benzothiazepin-4-one] | 89 | 69 | 237 | 763
2 | CC(C)(C)c1cncc(-c2cc3c(cc2F)S(=O)(=O)C[C@H](N)C(=O)N3Cc2ccc(Cl)cc2)c1 [Example 2, (3R)-3-amino-7-(5-tert-butyl-3-pyridyl)-5-[(4-chlorophenyl)methyl]-8-fluoro-1,1-dioxo-2,3-dihydro-1λ6,5-benzothiazepin-4-one] | 85 | 78 | 109 | 459
3 | CC(C)(c1cncc(-c2cc3c(cc2F)S(=O)(=O)C[C@H](N)C(=O)N3Cc2ccc(-c3noc(C(F)(F)F)n3)cc2)c1)S(C)(=O)=O [Example 25, (3R)-3-amino-8-fluoro-1,1-diketo-7-[5-(1-mesyl-1-methyl-ethyl)-3-pyridyl]-5-[4-[5-(trifluoromethyl)-1,2,4-oxadiazol-3-yl]benzyl]-2,3-dihydro-1λ6,5-benzothiazepin-4-one] | 86 | 841 | 168 | 4520
4 | CC(C)(C)c1cnnc(-c2cc3c(cc2F)S(=O)(=O)C[C@H](N)C(=O)N3Cc2ccc(Cl)cc2)n1 [Example 11, (3R)-3-amino-7-(5-tert-butyl-1,2,4-triazin-3-yl)-5-[(4-chlorophenyl)methyl]-8-fluoro-1,1-dioxo-2,3-dihydro-1λ6,5-benzothiazepin-4-one] | 118 | 134 | 79 | 119
5 | CC(C)(C#N)c1cncc(-c2cc3c(cc2F)S(=O)(=O)C[C@H](N)C(=O)N3Cc2ccc(-c3noc(C(F)(F)F)n3)cc2)c1 [Example 23, 2-[5-[(3R)-3-amino-8-fluoro-1,1,4-triketo-5-[4-[5-(trifluoromethyl)-1,2,4-oxadiazol-3-yl]benzyl]-2,3-dihydro-1λ6,5-benzothiazepin-7-yl]-3-pyridyl]-2-methyl-propionitrile] | – | – | 213 | 3540
